Reference: US12077503B2, “Substituted cyclic amides and their use as herbicides” (FMC CORPORATION, priority 2015, dated 2024)

Legend:
Type in all cases: in vivo
[1] = tested on: barnyardgrass (Echinochloa crus-galli); assay: Test G Pre-Emergence Protocol; conditions: Echinochloa crus-galli, pre-emergence, 312 h, evaluated after 13 days; for pest or weed control at 15.625 g/ha: 15.625 g ai/ha, read-out: Barnyard grass damage rating (100=total damage to plant; 0=no damage to plant); for pest or weed control at 62.5 g/ha: 62.5 g ai/ha, 100=total damage to plant, 0=no damage to plant, read-out: plant damage rating, Barnyardgrass; for pest or weed control at 250 g/ha: 250 g ai/ha, read-out: Barnyardgrass damage rating (100=total damage to plant; 0=no damage to plant)
Method in brief: (§1)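 Pots of seeds in standard soil were grown for one day in a glasshouse (24/16 °C day/night, 14 h light, 65% humidity), then sprayed with compound in acetone/water 50:50 with 0.5% Tween 20 at 15.625, 62.5 or 250 g/ha. Damage was scored after 13 days on a 0 (none) to 100 (total) scale.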

[2] = tested on: corn (Zea mays); assay: Test G Pre-Emergence Protocol; conditions: Zea mays, pre-emergence, 312 h, evaluated after 13 days; for plant injury at 15.625 g/ha: 15.625 g ai/ha; for plant injury at 15.625 g/ha / plant injury at 250 g/ha: read-out: Corn damage rating (100=total damage to plant; 0=no damage to plant); for plant injury at 62.5 g/ha: 62.5 g ai/ha, 100=total damage to plant, 0=no damage to plant, read-out: plant damage rating, Corn; for plant injury at 250 g/ha: 250 g ai/ha
Method in brief: as §1

[3] = tested on: giant foxtail (Setaria faberi); assay: Test G Pre-Emergence Protocol; conditions: Setaria faberi, pre-emergence, 312 h, evaluated after 13 days; for pest or weed control at 15.625 g/ha: 15.625 g ai/ha; for pest or weed control at 15.625 g/ha / pest or weed control at 250 g/ha: read-out: Foxtail, Giant damage rating (100=total damage to plant; 0=no damage to plant); for pest or weed control at 62.5 g/ha: 62.5 g ai/ha, 100=total damage to plant, 0=no damage to plant, read-out: plant damage rating, Foxtail, Giant; for pest or weed control at 250 g/ha: 250 g ai/ha
Method in brief: as §1

[4] = tested on: ivy-leaved morning glory (Ipomoea hederacea); assay: Test G Pre-Emergence Protocol; conditions: Ipomoea, pre-emergence, 312 h, evaluated after 13 days; for pest or weed control at 15.625 g/ha: 15.625 g ai/ha, read-out: Morning-glory, Ivy-leaved damage rating (100=total damage to plant; 0=no damage to plant); for pest or weed control at 62.5 g/ha: 62.5 g ai/ha, 100=total damage to plant, 0=no damage to plant, read-out: plant damage rating, Morningglory, Ivy-leaved; for pest or weed control at 250 g/ha: 250 g ai/ha, read-out: Morningglory, Ivy-leaved damage rating (100=total damage to plant; 0=no damage to plant)
Method in brief: as §1

[5] = tested on: redroot pigweed (Amaranthus retroflexus); assay: Test G Pre-Emergence Protocol; conditions: Amaranthus retroflexus, pre-emergence, 312 h, evaluated after 13 days; for pest or weed control at 15.625 g/ha: 15.625 g ai/ha; for pest or weed control at 15.625 g/ha / pest or weed control at 250 g/ha: read-out: Pigweed, Redroot damage rating (100=total damage to plant; 0=no damage to plant); for pest or weed control at 62.5 g/ha: 62.5 g ai/ha, 100=total damage to plant, 0=no damage to plant, read-out: plant damage rating, Pigweed, Redroot; for pest or weed control at 250 g/ha: 250 g ai/ha
Method in brief: as §1

[6] = tested on: velvetleaf (Abutilon theophrasti); assay: Test G Pre-Emergence Protocol; conditions: Abutilon theophrasti, pre-emergence, 312 h, evaluated after 13 days; for pest or weed control at 15.625 g/ha: 15.625 g ai/ha; for pest or weed control at 15.625 g/ha / pest or weed control at 250 g/ha: read-out: Velvetleaf damage rating (100=total damage to plant; 0=no damage to plant); for pest or weed control at 62.5 g/ha: 62.5 g ai/ha, 100=total damage to plant, 0=no damage to plant, read-out: plant damage rating, Velvetleaf; for pest or weed control at 250 g/ha: 250 g ai/ha
Method in brief: as §1

[7] = tested on: barnyardgrass (Echinochloa crus-galli); assay: Test G Post-Emergence Protocol; conditions: Echinochloa crus-galli, post-emergence, 312 h; for pest or weed control at 15.625 g/ha: 15.625 g ai/ha, evaluated after 13 days (100=total damage to plant; 0=no damage to plant), read-out: Barnyardgrass damage rating; for pest or weed control at 62.5 g/ha: 62.5 g ai/ha, read-out: Barnyardgrass damage rating (100=total damage to plant; 0=no damage to plant); for pest or weed control at 62.5 g/ha / pest or weed control at 250 g/ha: evaluated after 13 days; for pest or weed control at 250 g/ha: 250 g ai/ha, read-out: damage to plant, Barnyardgrass (100=total damage to plant; 0=no damage to plant)
Method in brief: (§2)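 Foliar application was made 8 days after sowing, using an aqueous spray of the active in acetone/water (50:50) with 0.5% Tween 20, at doses of 15.625, 62.5 or 250 g/ha. Injury was assessed 13 days later, where 100 meant the plant was fully damaged.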

[8] = tested on: corn (Zea mays); assay: Test G Post-Emergence Protocol; conditions: Zea mays, post-emergence, 312 h; for plant injury at 15.625 g/ha: 15.625 g ai/ha, evaluated after 13 days (100=total damage to plant; 0=no damage to plant), read-out: Corn damage rating; for plant injury at 62.5 g/ha: 62.5 g ai/ha, read-out: Corn damage rating (100=total damage to plant; 0=no damage to plant); for plant injury at 62.5 g/ha / plant injury at 250 g/ha: evaluated after 13 days; for plant injury at 250 g/ha: 250 g ai/ha, read-out: damage to plant, Corn (100=total damage to plant; 0=no damage to plant)
Method in brief: as §2

[9] = tested on: giant foxtail (Setaria faberi); assay: Test G Post-Emergence Protocol; conditions: Setaria faberi, post-emergence, 312 h; for pest or weed control at 15.625 g/ha: 15.625 g ai/ha, evaluated after 13 days (100=total damage to plant; 0=no damage to plant), read-out: Foxtail, Giant damage rating; for pest or weed control at 62.5 g/ha: 62.5 g ai/ha, read-out: Foxtail, Giant damage rating (100=total damage to plant; 0=no damage to plant); for pest or weed control at 62.5 g/ha / pest or weed control at 250 g/ha: evaluated after 13 days; for pest or weed control at 250 g/ha: 250 g ai/ha, read-out: damage to plant, Foxtail, Giant (100=total damage to plant; 0=no damage to plant)
Method in brief: as §2

[10] = tested on: ivy-leaved morning glory (Ipomoea hederacea); assay: Test G Post-Emergence Protocol; conditions: Ipomoea, post-emergence, 312 h; for pest or weed control at 15.625 g/ha: 15.625 g ai/ha, evaluated after 13 days (100=total damage to plant; 0=no damage to plant), read-out: Morningglory, Ivy-leaved damage rating; for pest or weed control at 62.5 g/ha: 62.5 g ai/ha, read-out: Morningglory, Ivy-leaved damage rating (100=total damage to plant; 0=no damage to plant); for pest or weed control at 62.5 g/ha / pest or weed control at 250 g/ha: evaluated after 13 days; for pest or weed control at 250 g/ha: 250 g ai/ha, read-out: damage to plant, Morningglory, Ivy-leaved (100=total damage to plant; 0=no damage to plant)
Method in brief: as §2

[11] = tested on: redroot pigweed (Amaranthus retroflexus); assay: Test G Post-Emergence Protocol; conditions: Amaranthus retroflexus, post-emergence, 312 h; for pest or weed control at 15.625 g/ha: 15.625 g ai/ha, evaluated after 13 days (100=total damage to plant; 0=no damage to plant), read-out: Pigweed, Redroot damage rating; for pest or weed control at 62.5 g/ha: 62.5 g ai/ha, read-out: Pigweed, Redroot damage rating (100=total damage to plant; 0=no damage to plant); for pest or weed control at 62.5 g/ha / pest or weed control at 250 g/ha: evaluated after 13 days; for pest or weed control at 250 g/ha: 250 g ai/ha, read-out: damage to plant, Pigweed, Redroot (100=total damage to plant; 0=no damage to plant)
Method in brief: as §2

[12] = tested on: velvetleaf (Abutilon theophrasti); assay: Test G Post-Emergence Protocol; conditions: Abutilon theophrasti, post-emergence, 312 h; for pest or weed control at 15.625 g/ha: 15.625 g ai/ha, evaluated after 13 days (100=total damage to plant; 0=no damage to plant), read-out: Velvetleaf damage rating; for pest or weed control at 62.5 g/ha: 62.5 g ai/ha, read-out: Velvetleaf damage rating (100=total damage to plant; 0=no damage to plant); for pest or weed control at 62.5 g/ha / pest or weed control at 250 g/ha: evaluated after 13 days; for pest or weed control at 250 g/ha: 250 g ai/ha, read-out: damage to plant, Velvetleaf (100=total damage to plant; 0=no damage to plant)
Method in brief: as §2

CN1C[C@@H](c2ccc(C(F)(F)F)cc2)[C@H](C(=O)Nc2ccon2)C1=O (racemic) [Compound 1506]
0%: pest or weed control at 15.625 g/ha [1] | pest or weed control at 62.5 g/ha [1] | pest or weed control at 250 g/ha [1] | plant injury at 15.625 g/ha [2] | plant injury at 62.5 g/ha [2] | plant injury at 250 g/ha [2] | pest or weed control at 15.625 g/ha [3] | pest or weed control at 62.5 g/ha [3] | pest or weed control at 250 g/ha [3] | pest or weed control at 15.625 g/ha [4] | pest or weed control at 62.5 g/ha [4] | pest or weed control at 250 g/ha [4] | pest or weed control at 15.625 g/ha [5] | pest or weed control at 62.5 g/ha [5] | pest or weed control at 250 g/ha [5] | pest or weed control at 15.625 g/ha [6] | pest or weed control at 62.5 g/ha [6] | pest or weed control at 250 g/ha [6] | pest or weed control at 15.625 g/ha [7] | pest or weed control at 62.5 g/ha [7] | pest or weed control at 250 g/ha [7] | plant injury at 15.625 g/ha [8] | plant injury at 62.5 g/ha [8] | plant injury at 250 g/ha [8] | pest or weed control at 15.625 g/ha [9] | pest or weed control at 62.5 g/ha [9] | pest or weed control at 250 g/ha [9] | pest or weed control at 15.625 g/ha [10] | pest or weed control at 62.5 g/ha [10] | pest or weed control at 250 g/ha [10] | pest or weed control at 15.625 g/ha [11] | pest or weed control at 62.5 g/ha [11] | pest or weed control at 250 g/ha [11] | pest or weed control at 15.625 g/ha [12] | pest or weed control at 62.5 g/ha [12] | pest or weed control at 250 g/ha [12]

COc1c(Cl)cccc1NC(=O)[C@H]1C(=O)N(C)C[C@@H]1c1ccc(C(F)(F)F)cc1 (racemic) [Compound 1447]
10%: pest or weed control at 250 g/ha [1] | plant injury at 62.5 g/ha [8] | plant injury at 250 g/ha [8] | pest or weed control at 15.625 g/ha [9]
50%: pest or weed control at 15.625 g/ha [3] | pest or weed control at 62.5 g/ha [3] | pest or weed control at 250 g/ha [9]
0%: pest or weed control at 15.625 g/ha [1] | pest or weed control at 62.5 g/ha [1] | plant injury at 15.625 g/ha [2] | plant injury at 62.5 g/ha [2] | pest or weed control at 15.625 g/ha [4] | pest or weed control at 62.5 g/ha [4] | pest or weed control at 250 g/ha [4] | pest or weed control at 15.625 g/ha [5] | pest or weed control at 62.5 g/ha [5] | pest or weed control at 250 g/ha [5] | pest or weed control at 15.625 g/ha [6] | pest or weed control at 62.5 g/ha [6] | pest or weed control at 250 g/ha [6] | pest or weed control at 15.625 g/ha [7] | pest or weed control at 62.5 g/ha [7] | pest or weed control at 250 g/ha [7] | plant injury at 15.625 g/ha [8] | pest or weed control at 15.625 g/ha [10] | pest or weed control at 62.5 g/ha [10] | pest or weed control at 250 g/ha [10] | pest or weed control at 15.625 g/ha [11] | pest or weed control at 62.5 g/ha [11] | pest or weed control at 250 g/ha [11] | pest or weed control at 15.625 g/ha [12] | pest or weed control at 62.5 g/ha [12] | pest or weed control at 250 g/ha [12]
60%: pest or weed control at 250 g/ha [3]
20%: plant injury at 250 g/ha [2] | pest or weed control at 62.5 g/ha [9]
